# Publication PMC3030600, “Characterizing Ligand-Gated Ion Channel Receptors with Genetically Encoded Ca^++ Sensors” (PLoS ONE, 2011)
# Like-named read-outs stand apart in the source and are kept apart here.
# Experiments:
# [1] = target: α7-nAChR (Homo sapiens, UniProt P36544); conditions: read-out: EC50, α7-nAChR (non-CNiFER); potential-sensitive dye, human receptors
# [2] = tested on: α7/5-HT3A; conditions: cited from earlier work; for EC50: Ca2+ dye (Fluo-3-AM) on HEK293 cells expressing human receptors, read-out: EC50, α7/5-HT3A (non-CNiFER)
# [3] = target: human α7 nicotinic acetylcholine receptors (Homo sapiens, UniProt P36544); assay: cell-based; assay type: cell-based
# [4] = target: T1, mouse 5-HT3A serotonin receptors (Mus musculus, UniProt P23979); assay: 5-HT3A CNiFER FRET Flex assay; assay type: cell-based; conditions: for mode of antagonism / Schild Slope: vs 5-HT; for Schild Slope: in aCSF
# T1 sequence (P23979 24-489): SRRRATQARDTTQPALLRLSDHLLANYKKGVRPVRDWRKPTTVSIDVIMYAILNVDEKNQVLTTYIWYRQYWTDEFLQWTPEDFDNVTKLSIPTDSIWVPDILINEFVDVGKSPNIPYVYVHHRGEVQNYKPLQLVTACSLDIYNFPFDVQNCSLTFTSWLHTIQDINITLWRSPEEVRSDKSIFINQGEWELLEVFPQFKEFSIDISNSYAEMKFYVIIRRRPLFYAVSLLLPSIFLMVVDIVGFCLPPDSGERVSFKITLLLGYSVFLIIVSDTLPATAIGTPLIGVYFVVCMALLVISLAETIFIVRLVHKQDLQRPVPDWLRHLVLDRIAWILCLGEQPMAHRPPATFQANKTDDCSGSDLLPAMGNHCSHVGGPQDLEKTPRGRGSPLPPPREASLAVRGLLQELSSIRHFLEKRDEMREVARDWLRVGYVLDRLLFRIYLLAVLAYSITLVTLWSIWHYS
# Description: Cells were cultured in 10 cm plates with DMEM (Mediatech, Manassas, VA) supplemented with 10% FBS (Gemini Bio-Products, West Sacramento, CA; Atlanta Biologicals, Lawrenceville, GA) and 1% Glutamine (Invitrogen), and incubated at 37°C with 10% CO2. Cells were selected at ∼70% confluency and plated the day before using 100 µl volumes per well into black, transparent flat-bottom, TC treated 96-well plates (Thermo, Waltham, MA; E&K, Greiner Campbell, CA). Plates were removed from the incubator the next day and the media was replaced with 100 µl of artificial cerebral spinal fluid (aCSF) [containing 121 mM NaCl, 2.4 mM Ca^2+, 1.3 mM Mg^2+, 5 mM KCl, 26 mM NaHCO3, 1.2 mM Na2HPO4, 10 mM glucose, 5 mM Hepes Na^+, pH 7.4]. For all assays performed on α7-nAChR CNiFERs 10 µM of the PAM, PNU-120596 (Tocris, Ellisville, MO), was prepared in aCSF. In the case of antagonist measurements, antagonists, at 1.5 times the final desired concentration, were prepared in aCSF. For non-CNiFER cell lines, Blue Membrane Potential dye (Molecular Devices, Sunnyvale, CA) was prepared in aCSF and diluted 2 fold the recommended dilution. Plates were incubated for at least 30 min at 37°C and 10% CO2 for any assay that included antagonist, dye, or PAM modification to the aCSF. Following incubation, plates were removed and placed into the Molecular Devices FlexStation III instrument and run at 37°C. Injection rates varied between […], and 50 µl of the specified agonist prepared at 3x final concentration in the aforementioned aCSF solution was injected after 30 s of baseline measurement. […] All wells were replicated (two or three times) in the same plate. Mean peak FRET ratios calculated from replicates were exported and plotted against agonist concentrations using Graphpad Prism 4 (Carlsbad, CA). A sigmoidal concentration-response (variable slope) regression of the mean peak FRET ratios was fit to generate a concentration-response curve and obtain an EC50 value.
# To measure potencies of competitive antagonists, three concentration-response curves with different antagonist concentrations were compared to a control curve (without antagonist). Mean FRET responses generated concentration response curves, and antagonist dependent shifts in EC50 values were used to calculate dose ratios (DR), as a concentration ratio of EC50'/EC50 for the specified agonist (where EC50' is in the presence of the antagonist at the specified concentration). DRs were used to produce a Schild regression plot for analysis of competitive antagonism and generate a Ka value. Analysis consisted of potting Log (DR-1) against –Log [Antagonist]. The Schild Ka value for competitive antagonists was calculated from the x-intercept at y = 0, as the –Log (Ka), [38]. All errors reported are arithmetic standard deviations unless otherwise noted.
# [5] = tested on: α7-nAChR; conditions: cited from earlier work
# human α7 nicotinic acetylcholine receptors, sequence (P36544 23-502): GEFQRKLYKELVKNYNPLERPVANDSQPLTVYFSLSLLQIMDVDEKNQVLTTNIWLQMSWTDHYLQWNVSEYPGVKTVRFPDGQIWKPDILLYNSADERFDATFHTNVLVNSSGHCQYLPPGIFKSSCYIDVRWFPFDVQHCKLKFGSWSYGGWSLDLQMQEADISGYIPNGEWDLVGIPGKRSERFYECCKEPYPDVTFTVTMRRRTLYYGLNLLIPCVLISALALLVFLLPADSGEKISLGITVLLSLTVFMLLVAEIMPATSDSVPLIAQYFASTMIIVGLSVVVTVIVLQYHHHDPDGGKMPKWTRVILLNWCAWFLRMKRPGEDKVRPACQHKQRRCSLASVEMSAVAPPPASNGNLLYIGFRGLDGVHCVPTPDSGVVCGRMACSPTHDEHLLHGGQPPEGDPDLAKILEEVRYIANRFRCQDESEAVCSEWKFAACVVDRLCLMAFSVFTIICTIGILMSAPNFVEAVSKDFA
# α7-nAChR (Homo sapiens, UniProt P36544), sequence (P36544 23-502): as above
molecule,measurement,setting,value
"Clc1ccc(C2CC3CCC2N3)cn1 (racemic) [(±)-Epibatidine, (±)-epibatidine]",EC50,[1],17 ± 2.6 nM
same,EC50,[2],0.18 ± 0.02 µM
same,EC50,"[3]; read-out: EC50, α7-nAChR CNiFER",28 nM
same,EC50,[3]; read-out: EC50 of agonist curve,3.6 nM
(−)-Nicotine,EC50,[2],19.1 µM
CN1[C@@H]2CC[C@H]1C[C@@H](OC(=O)c1c[nH]c3ccccc13)C2 [tropisetron],mode of antagonism,[4],greater non-competitive component
"NCCc1c[nH]c2ccc(O)cc12 [5-HT, 5-Hydroxytryptamine]",Hill coefficient,[4]; 5-HT3A CNiFER concentration-response (Figure 6A),2.6
"Cc1nccn1CC1CCc2c(c3ccccc3n2C)C1=O (stereo not shown) [Ondansetron, ondansetron]",Kd,[4]; read-out: CNiFER Ka (Schild),1.6 ± 0.9 nM
same,mode of antagonism,[4],near competitive block
same,Schild Slope,[4],−1.3±0.04
same,Schild Slope,[4]; listed as ondansetron,-1.3±0.04
"CCN1C[C@]2(COC(=O)c3ccccc3N3C(=O)C[C@H](C)C3=O)CC[C@H](OC)[C@@]34[C@@H]5C[C@H]6[C@H](OC)[C@@H]5[C@](O)(C[C@@H]6OC)[C@@](O)([C@@H](OC)[C@H]23)[C@@H]14 [MLA, methyllycaconitine]",half time for dissociation,[5],2.3 min
same,IC50,[2]; read-out: IC50 (non-CNiFER),36 ± 13 nM
same,Kd,[3],3.2 nM
same,Schild Slope,[3],−1.2±0.3
same,mode of antagonism (Schild analysis),[3],competitively
